# Values of other authors in patent US20120237456A1, “ORAL COMPOSITIONS CONTAINING EXTRACTS OF GARCINIA MANGOSTANA L. AND RELATED METHODS” (Colgate-Palmolive Company, priority 2009, published 2012).
# Experiments:
# [1] = system: cAMP phosphodiesterase; conditions: reported by Chairungsrilerd and Takeuchi et al., 1996
# [2] = compared with BHA and a-tocopherol (vitamin E); Yoshikawa et al., 1994; Fan and Su, 1997
# [3] = system: DNA topoisomerase; conditions: Tosa et al., 1997
# [4] = biological target: COX 1 (Homo sapiens, UniProt P23219); conditions: Nakatani et al., 2002 and 2004
# Sequence of COX 1 (P23219 24-599): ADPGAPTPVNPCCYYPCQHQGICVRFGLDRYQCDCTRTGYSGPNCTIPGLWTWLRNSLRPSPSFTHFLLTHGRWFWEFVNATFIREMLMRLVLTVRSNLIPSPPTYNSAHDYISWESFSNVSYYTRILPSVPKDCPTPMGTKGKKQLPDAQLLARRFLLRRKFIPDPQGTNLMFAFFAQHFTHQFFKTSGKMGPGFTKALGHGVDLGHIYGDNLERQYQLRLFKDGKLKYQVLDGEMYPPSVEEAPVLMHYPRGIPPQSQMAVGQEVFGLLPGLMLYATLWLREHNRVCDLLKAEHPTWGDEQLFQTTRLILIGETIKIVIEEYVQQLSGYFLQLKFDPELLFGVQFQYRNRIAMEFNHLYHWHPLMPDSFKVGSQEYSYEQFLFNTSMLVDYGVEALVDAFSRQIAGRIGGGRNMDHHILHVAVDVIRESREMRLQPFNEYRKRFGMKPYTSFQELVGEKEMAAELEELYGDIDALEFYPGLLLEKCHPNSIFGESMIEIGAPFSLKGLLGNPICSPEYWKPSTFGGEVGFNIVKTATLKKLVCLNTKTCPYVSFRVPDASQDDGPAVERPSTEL
# [5] = system: serotonin receptors; conditions: Chairungsrilerd, Furukawa et al., 1996 and 1998
Compound,inhibition of cAMP phosphodiesterase [1],antioxidative activity [2],inhibition of DNA topoisomerase [3],inhibition of the activity of cyclooxygenase COX 1 [4],antagonism of serotonin receptors [5]
COc1c(O)cc2oc3cc4c(c(O)c3c(=O)c2c1CC=C(C)C)CC(O)C(C)(C)O4 (centres unmarked) [Mangostanol],strong inhibition,–,–,–,–
CC(C)=CCc1c(O)cc2oc3cc(O)c(O)c(CC=C(C)C)c3c(=O)c2c1O [γ-mangostin],–,more potent antioxidative activity than BHA,inhibit,directly inhibit,antagonist
